Measurements reported in EP3046573B1, “AMYLIN ANALOGUES” (Zealand Pharma A/S, priority 2013, dated 2015).
Read-outs that look alike come from different tables or passages of the source. Numbered stars: 1 amine (or outer) side, 2 acyl side, 3 side chain; on linkers, the order of the positions; unused ones are H or OH. Bridge positions count the residues as written; N and C are the ends. Square brackets hold non-standard residues; d marks the D form. Peptide text beside a SMILES is read from it. * marks the point of attachment. Pro(4R-Bn) = O=C(O)[C@@H]1C[C@@H](Cc2ccccc2)CN1; C20 diacid = O=C(O)CCCCCCCCCCCCCCCCCCC(=O)*; γGlu = O=C(O)[C@H](CCC(=O)[*:2])N[*:1]; Hyp = O=C(O)[C@@H]1C[C@@H](O)CN1; NMeI = CC[C@H](C)[C@H](NC)C(=O)O; Sar = CNCC(=O)O

Experiments:
[1] = Solubility assessment (turbidity absorbance at 325 nm); type: physicochemical; settings: stock 2 mg/ml diluted 1:1, ambient temperature (typically 25°C), n=1; for Solubility, Acetate buffer pH 4: 100 mM acetate buffer pH 4.0; for Solubility, Acetate buffer pH 5: 100 mM acetate buffer pH 5.0; for Solubility, Histidine buffer pH 6: 100 mM histidine buffer pH 6.0; for Solubility, Histidine buffer pH 7: 100 mM histidine buffer pH 7.0; for Solubility, Phosphate buffer pH 6: 100 mM phosphate buffer pH 6.0; for Solubility, Phosphate buffer pH 7: 100 mM phosphate buffer pH 7.0; for Solubility, Phosphate buffer pH 7.5: 100 mM phosphate buffer pH7.5
Outline: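 Peptide stock (2 mg/ml) in water acidified to pH 2.5 with HCl was diluted 1:1 into 100 mM acetate (pH 4.0, 5.0), histidine (pH 6.0, 7.0) or phosphate (pH 6.0, 7.0, 7.5) buffer. A280 and A325 were read at about 25°C, n=1. A325 ≤ 0.02 meant solubility ≥ 1 mg/ml.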

[2] = molecular target: T1, human calcitonin receptor (hCTR2) (Homo sapiens, UniProt P30988); assay: hCTR2 assay: induction of cAMP (AlphaScreen cAMP Assay kit) in COS7 cells expressing hCTR2; type: cell-based
T1 construct: expressed in transfected cells
T1 sequence (P30988 25-474): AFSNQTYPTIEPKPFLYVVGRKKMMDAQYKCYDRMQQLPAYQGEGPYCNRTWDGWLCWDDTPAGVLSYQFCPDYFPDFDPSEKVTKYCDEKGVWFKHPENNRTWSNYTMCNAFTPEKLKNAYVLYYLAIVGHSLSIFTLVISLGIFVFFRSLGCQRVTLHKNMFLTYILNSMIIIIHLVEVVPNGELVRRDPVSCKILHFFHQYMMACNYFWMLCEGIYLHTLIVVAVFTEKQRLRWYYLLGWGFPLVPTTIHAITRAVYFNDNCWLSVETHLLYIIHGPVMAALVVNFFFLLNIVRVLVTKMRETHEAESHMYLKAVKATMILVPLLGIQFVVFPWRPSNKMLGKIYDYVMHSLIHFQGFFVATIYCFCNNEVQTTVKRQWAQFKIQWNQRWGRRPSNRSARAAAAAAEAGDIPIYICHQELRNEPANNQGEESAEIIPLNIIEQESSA
Outline: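 COS7 stable hCTR2 clone (RAMP-free); peptide dose-response 15 min 37° C in Tyrode pH 7.4 + 100 µM IBMX + 0.1% casein; lysis 10 min RT; AlphaScreen cAMP; 4PL fit.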

[3] = molecular target: T2, human amylin receptor 3 (hAMYR3) consisting of hCTR2 co-expressed with human Receptor Activity Modifying Protein 3 (hRAMP3) (Homo sapiens, UniProt O60896+P30988); assay: hAMYR3 assay: induction of cAMP (AlphaScreen cAMP Assay kit) in COS7 cells expressing hAMYR3; type: cell-based
T2 construct: expressed in transfected cells
T2 sequence (P30988 25-474): T1 sequence (P30988 25-474)
T2 sequence (O60896 24-148 partner): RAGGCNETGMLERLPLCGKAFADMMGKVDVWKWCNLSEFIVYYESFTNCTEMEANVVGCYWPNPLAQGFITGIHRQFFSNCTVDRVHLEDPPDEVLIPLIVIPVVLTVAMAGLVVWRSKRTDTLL
Outline: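 Stable COS7 clone co-expressing hCTR2 and hRAMP3, stimulated 15 min at 37° C with increasing peptide in Tyrode buffer pH 7.4 with 100 µM IBMX and 0.1% casein. cAMP measured by AlphaScreen after lysis; EC50 and % efficacy versus pramlintide from 4PL fit.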

[4] = cAMP induction in COS7 cells expressing hCTR2, average of a minimum of 3 determinations, read-out: hCTR2 EC50
[5] = cAMP induction in COS7 cells expressing hAMYR3, average of a minimum of 3 determinations, read-out: hAMY R3 EC50

CC[C@H](C)[C@@H](C(=O)N[C@@H](CC(C)C)C(=O)N[C@@H](CO)C(=O)N[C@@H](CO)C(=O)N[C@H](C(=O)N[C@@H](CC(N)=O)C(=O)N[C@H](C(=O)NCC(=O)N[C@@H](CO)C(=O)N[C@@H](CC(N)=O)C(=O)N[C@H](C(=O)N1C[C@H](Cc2ccccc2)C[C@H]1C(N)=O)[C@@H](C)O)C(C)C)[C@@H](C)O)N(C)C(=O)[C@H](C)NC(=O)CN(C)C(=O)[C@H](Cc1ccccc1)NC(=O)[C@H](CC(N)=O)NC(=O)[C@H](CC(N)=O)NC(=O)[C@H](CO)NC(=O)[C@H](CO)NC(=O)[C@H](CCCNC(=N)N)NC(=O)[C@H](Cc1c[nH]cn1)NC(=O)[C@H](CC(C)C)NC(=O)[C@H](Cc1ccccc1)NC(=O)[C@H](CCC(=O)O)NC(=O)[C@H](C)NC(=O)[C@H](CC(C)C)NC(=O)[C@H](CCCNC(=N)N)NC(=O)[C@H](CCC(N)=O)NC(=O)[C@@H](NC(=O)[C@H](C)NC(=O)[C@@H]1CSSC[C@H](NC(=O)[C@H](CCCNC(=N)N)NC(=O)CC[C@H](NC(=O)CCCCCCCCCCCCCCCCCCC(=O)O)C(=O)O)C(=O)N[C@@H](CC(N)=O)C(=O)N[C@@H]([C@@H](C)O)C(=O)N[C@@H](C)C(=O)N[C@@H]([C@@H](C)O)C(=O)N1)[C@@H](C)O [Compound 114, [19CD]-isoGlu-RC()NTATC()ATQRLAEFLHRSSNNF-Gly(Me)-A-Ile(Me)-LSSTNVGSNT-Bep-NH2] ({C20 diacid-γGlu}-RCNTATCATQRLAEFLHRSSNNF[Sar]A[NMeI]LSSTNVGSNT[Pro(4R-Bn)]-NH2; disulfide 2-7)
Solubility, Acetate buffer pH 4 [1]: SS (SS indicates solubility ≥ 1mg/ml)
Solubility, Acetate buffer pH 5 [1]: SS (SS indicates solubility ≥ 1mg/ml)
Solubility, Histidine buffer pH 6 [1]: SS (SS indicates solubility ≥ 1mg/ml)
Solubility, Histidine buffer pH 7 [1]: II (II indicates solubility ≤ 1 mg/ml)
Solubility, Phosphate buffer pH 6 [1]: II (II indicates solubility ≤ 1 mg/ml)
Solubility, Phosphate buffer pH 7 [1]: II (II indicates solubility ≤ 1 mg/ml)
Solubility, Phosphate buffer pH 7.5 [1]: II (II indicates solubility ≤ 1 mg/ml)
EC50 [2]: 0.21 nM
EC50 [3]: 0.18 nM

CC[C@H](C)[C@@H](C(=O)N[C@@H](CC(C)C)C(=O)N[C@@H](CO)C(=O)N[C@@H](CO)C(=O)N[C@H](C(=O)N[C@@H](CCC(=O)O)C(=O)N[C@H](C(=O)NCC(=O)N[C@@H](CO)C(=O)N[C@@H](CCC(=O)O)C(=O)N[C@H](C(=O)N1CCC[C@H]1C(N)=O)[C@@H](C)O)C(C)C)[C@@H](C)O)N(C)C(=O)[C@H](C)NC(=O)CN(C)C(=O)[C@H](Cc1ccccc1)NC(=O)[C@H](CO)NC(=O)[C@H](CO)NC(=O)[C@H](CO)NC(=O)[C@H](CO)NC(=O)[C@H](CCCNC(=N)N)NC(=O)[C@H](Cc1c[nH]cn1)NC(=O)[C@H](CC(C)C)NC(=O)[C@H](Cc1ccccc1)NC(=O)[C@H](CCC(=O)O)NC(=O)[C@H](C)NC(=O)[C@H](CC(C)C)NC(=O)[C@H](CCCNC(=N)N)NC(=O)[C@H](CCC(=O)O)NC(=O)[C@@H](NC(=O)[C@H](C)NC(=O)[C@@H]1CSSC[C@H](NC(=O)[C@H](CCCNC(=N)N)NC(=O)CC[C@H](NC(=O)CCCCCCCCCCCCCCCCCCC(=O)O)C(=O)O)C(=O)N[C@@H](CO)C(=O)N[C@@H]([C@@H](C)O)C(=O)N[C@@H](C)C(=O)N[C@@H]([C@@H](C)O)C(=O)N1)[C@@H](C)O [Compound 135, [19CD]-isoGlu-RC()STATC()ATERLAEFLHRSSSSF-Gly(Me)-A-Ile(Me)-LSSTEVGSETP-NH2] ({C20 diacid-γGlu}-RCSTATCATERLAEFLHRSSSSF[Sar]A[NMeI]LSSTEVGSETP-NH2; disulfide 2-7)
Solubility, Acetate buffer pH 4 [1]: SS (SS indicates solubility ≥ 1mg/ml)
Solubility, Acetate buffer pH 5 [1]: SS (SS indicates solubility ≥ 1mg/ml)
Solubility, Histidine buffer pH 6 [1]: SS (SS indicates solubility ≥ 1mg/ml)
Solubility, Histidine buffer pH 7 [1]: SS (SS indicates solubility ≥ 1mg/ml)
Solubility, Phosphate buffer pH 6 [1]: SS (SS indicates solubility ≥ 1mg/ml)
Solubility, Phosphate buffer pH 7 [1]: SS (SS indicates solubility ≥ 1mg/ml)
Solubility, Phosphate buffer pH 7.5 [1]: SS (SS indicates solubility ≥ 1mg/ml)
EC50 [2, 4]: 0.76 nM
EC50 [3, 5]: 0.61 nM

CC[C@H](C)[C@@H](C(=O)N[C@@H](CC(C)C)C(=O)N[C@@H](CO)C(=O)N[C@@H](CO)C(=O)N[C@H](C(=O)N[C@@H](CCC(=O)O)C(=O)N[C@H](C(=O)NCC(=O)N[C@@H](CO)C(=O)N[C@@H](CCC(=O)O)C(=O)N[C@H](C(=O)N1CCC[C@H]1C(N)=O)[C@@H](C)O)C(C)C)[C@@H](C)O)N(C)C(=O)[C@H](C)NC(=O)CN(C)C(=O)[C@H](Cc1ccccc1)NC(=O)[C@H](CO)NC(=O)[C@H](CO)NC(=O)[C@H](CO)NC(=O)[C@H](CO)NC(=O)[C@H](CCCNC(=N)N)NC(=O)[C@H](Cc1c[nH]cn1)NC(=O)[C@H](CC(C)C)NC(=O)[C@H](Cc1ccccc1)NC(=O)[C@H](CCC(=O)O)NC(=O)[C@H](C)NC(=O)[C@H](CC(C)C)NC(=O)[C@H](CCCNC(=N)N)NC(=O)[C@H](CO)NC(=O)[C@@H](NC(=O)[C@H](C)NC(=O)[C@@H]1CSSC[C@H](NC(=O)[C@H](CCCNC(=N)N)NC(=O)CC[C@H](NC(=O)CCCCCCCCCCCCCCCCCCC(=O)O)C(=O)O)C(=O)N[C@@H](CC(N)=O)C(=O)N[C@@H]([C@@H](C)O)C(=O)N[C@@H](C)C(=O)N[C@@H]([C@@H](C)O)C(=O)N1)[C@@H](C)O [Compound 124, [19CD]-isoGlu-RC()NTATC()ATSRLAEFLHRSSSSF-Gly(Me)-A-Ile(Me)-LSSTEVGSETP-NH2] ({C20 diacid-γGlu}-RCNTATCATSRLAEFLHRSSSSF[Sar]A[NMeI]LSSTEVGSETP-NH2; disulfide 2-7)
Solubility, Acetate buffer pH 4 [1]: SS (SS indicates solubility ≥ 1mg/ml)
Solubility, Acetate buffer pH 5 [1]: SS (SS indicates solubility ≥ 1mg/ml)
Solubility, Histidine buffer pH 6 [1]: SS (SS indicates solubility ≥ 1mg/ml)
Solubility, Histidine buffer pH 7 [1]: SS (SS indicates solubility ≥ 1mg/ml)
Solubility, Phosphate buffer pH 6 [1]: SS (SS indicates solubility ≥ 1mg/ml)
Solubility, Phosphate buffer pH 7 [1]: SS (SS indicates solubility ≥ 1mg/ml)
Solubility, Phosphate buffer pH 7.5 [1]: SS (SS indicates solubility ≥ 1mg/ml)
EC50 [2, 4]: 0.14 nM
EC50 [3, 5]: 0.17 nM

CC[C@H](C)[C@@H](C(=O)N[C@@H](CC(C)C)C(=O)N[C@@H](CO)C(=O)N[C@@H](CO)C(=O)N[C@H](C(=O)N[C@@H](CCC(=O)O)C(=O)N[C@H](C(=O)NCC(=O)N[C@@H](CO)C(=O)N[C@@H](CCC(=O)O)C(=O)N[C@H](C(=O)N1C[C@H](O)C[C@H]1C(N)=O)[C@@H](C)O)C(C)C)[C@@H](C)O)N(C)C(=O)CN(C)C(=O)[C@H](Cc1ccccc1)NC(=O)[C@H](CO)NC(=O)[C@H](CO)NC(=O)[C@H](CCCNC(=N)N)NC(=O)[C@H](Cc1c[nH]cn1)NC(=O)[C@H](CC(C)C)NC(=O)[C@H](Cc1ccccc1)NC(=O)[C@H](CCC(=O)O)NC(=O)[C@H](C)NC(=O)[C@H](CC(C)C)NC(=O)[C@H](CCCNC(=N)N)NC(=O)[C@H](CCC(=O)O)NC(=O)[C@@H](NC(=O)[C@H](C)NC(=O)[C@@H]1CSSC[C@H](NC(=O)[C@H](CCCNC(=N)N)NC(=O)CC[C@H](NC(=O)CCCCCCCCCCCCCCCCCCC(=O)O)C(=O)O)C(=O)NCC(=O)N[C@@H]([C@@H](C)O)C(=O)N[C@@H](C)C(=O)N[C@@H]([C@@H](C)O)C(=O)N1)[C@@H](C)O [Compound 167, [19CD]-isoGlu-RC()GTATC()ATERLAEFLHRSSF-Gly(Me)-Ile(Me)-LSSTEVGSET-Hyp-NH2] ({C20 diacid-γGlu}-RCGTATCATERLAEFLHRSSF[Sar][NMeI]LSSTEVGSET[Hyp]-NH2; disulfide 2-7)
Solubility, Acetate buffer pH 4 [1]: SS (SS indicates solubility ≥ 1mg/ml)
Solubility, Acetate buffer pH 5 [1]: SS (SS indicates solubility ≥ 1mg/ml)
Solubility, Histidine buffer pH 6 [1]: SS (SS indicates solubility ≥ 1mg/ml)
Solubility, Histidine buffer pH 7 [1]: SS (SS indicates solubility ≥ 1mg/ml)
Solubility, Phosphate buffer pH 6 [1]: SS (SS indicates solubility ≥ 1mg/ml)
Solubility, Phosphate buffer pH 7 [1]: SS (SS indicates solubility ≥ 1mg/ml)
Solubility, Phosphate buffer pH 7.5 [1]: SS (SS indicates solubility ≥ 1mg/ml)
EC50 [2, 4]: 0.078 nM
EC50 [3, 5]: 0.11 nM
